Results on two substances are retold here after article PMC11315935, “Multi-layered heterochromatin interaction as a switch for DIM2-mediated DNA methylation” (Nature Communications, 2024).

One assay deals with DIM2, W581A. As to the kind of experiment: ITC binding of H3K9me3 peptide, DIM2 W581A. Details: species or system Neurospora Crassa. The protocol:
(§1) ITC measurements were performed using a MicroCal iTC200 instrument (GE Healthcare). To measure the bindings between proteins and H3K9me3 peptide, 0.04–0.05 mM DIM2, WT or mutant (W261A, W581A, or W261A/W581A), DIM2 RFTS domain, or HP1, WT or mutant (W98A), was titrated with 0.5 mM histone peptide at 7 °C. Prior to the titration, both peptide and protein samples were subjected to overnight dialysis against buffer containing 20 mM Tris-HCl (pH 7.5), 100 mM NaCl, and 1 mM β-mercaptoethanol. Buffer to buffer titration was performed to ensure no abnormality of baseline. Analyses of all data were performed with MicroCal Origin software, fitted with single-site binding mode.

Another assay relates to DIM2, W261A. As to the kind of experiment: ITC binding of H3K9me3 peptide, DIM2 W261A. Details: species or system Neurospora Crassa. Here is the method: as §1
For another assay, the system named is DIM2. As to the kind of experiment: In vitro DNA methylation assay: effect of HP1 and H3 peptides on DIM2 activity. The format is biochemical, Neurospora Crassa. The settings on record: 36-mer DNA duplex, 1.0 µM peptide and/or 2 µM HP1. The protocol:
In vitro DNA methylation assay was performed in a 20-µL reaction mixture. For the substrate specificity assay, the following DNA duplexes were used as substrates: CG DNA (Upper strand: 5’-[…]-3’), hemimethylated CG DNA (Upper strand: 5’-TAAATTTXGATTAATAAT-3’, X = 5-methylcytosine; Lower strand: 5’-[…] -3’), CHG DNA (Upper strand: 5’-[…]-3’), and CHH DNA (Upper strand: 5’-[…]-3’). The reaction mixture contains 0.25 µM DIM2, 1.0 µM DNA duplex, 1.0 µM synthesized H3K9me3 peptide (residues 1-24 of H3 plus a C-terminal tryptophan), 0.5 µM HP1, and 0.56 µM S-adenosyl-L-[methyl-^3H] methionine with a specific activity of 18 Ci/mmol (PerkinElmer) in buffer containing 50 mM Tris-HCl (pH 8.0), 100 mM NaCl, 0.05% β-mercaptoethanol, 5% glycerol, and 200 µg/mL BSA. For the rest of the DNA methylation assay, each reaction mixture contains 1.0 µM DIM2, […] methionine with a specific activity of 18 Ci/mmol (PerkinElmer) in buffer containing 50 mM Tris-HCl (pH 8.0), 100 mM NaCl, 0.05% β-mercaptoethanol, 5% glycerol, and 200 µg/mL BSA. In addition, 1.0 µM synthesized H3K9me3 or H3K9me0 peptide (residues 1-24 of H3 plus a C-terminal tryptophan) and/or 2 µM HP1 protein was included to evaluate the effect of H3 and HP1 regulation. The reaction mixture was incubated at 30 °C for 30 min, unless indicated otherwise, before being quenched by the addition of 5 µL of 10 mM cold SAM. After the reaction, 8 μL of the mixtures was loaded onto Hybond N nylon membrane (GE Healthcare), which was left to dry out at room temperature. The membrane was subsequently washed with 0.2 M ammonium bicarbonate (pH 8.2) two times (20 min per time), deionized water (20 min) once, and 95% ethanol (5 min) once. After air dried, the membrane carrying each sample was transferred into a vial containing 3 mL scintillation buffer (Fisher). The tritium scintillation was measured and recorded by a Beckman LS6500 counter. Each the reaction was repeated three times.

The target of a further assay is DIM2, W261A/W581A. As to the kind of experiment: ITC binding of H3K9me3 peptide, DIM2 W261A/W581A. Details: species or system Neurospora Crassa. The settings on record: 7 °C, pH 7.5, NDB, no detectable binding. Here is the method: as §1
Another assay concerns HP1. As to the kind of experiment: Size-exclusion chromatography of DIM2-HP1 complex. The settings on record: 1.0 µM DIM2 and/or 2.5 µM HP1, Superdex 200 increase 10/300 GL, pH 7.5. The class given is binding, Neurospora Crassa. Here is the method:
For size-exclusion chromatography analysis, 400 µL of the sample mixture containing 1.0 µM DIM2 and/or 2.5 µM HP1 was loaded onto Superdex 200 increase 10/300 GL column (GE Healthcare) and eluted at a flow rate of 0.5 mL/min, in the buffer containing 20 mM Tris-HCl (pH 7.5), 100 mM NaCl, 5% glycerol, and 5 mM DTT. The proteins in each fraction were then visualized by SDS-PAGE.

The test system of assay [1] is (CTA)12/(TAG)12 36-mer DNA duplex. As to the kind of experiment: In vitro DNA methylation assay of DIM2 (WT or mutant). The format is biochemical. Details: DNA methylation activity: unit not given here. The settings on record: 30 min.

As for “H31-24K9me3: synthesized H3K9me3 peptide (residues 1-24 of H3 plus a C-terminal tryptophan)”, the “reduction of peptide-binding affinity vs WT DIM2” value in the assay with DIM2, W581A is given as around 10 fold. The “enhanced binding affinity vs WT DIM2” value in the assay on DIM2, W261A (W261A vs WT) was ~ 2.3 fold. Moreover, the “BAH1-H3K9me3 binding stronger than RFTS-H3K9me3 binding by” value with DIM2, W261A (in the absence of DNA) is listed as ~ 24 fold. The “effect on DNA methylation activity of DIM2 (in words)” value in the assay on DIM2 was “failed to activate DIM2 appreciably”. Moreover, the Kd entry is “NDB” on DIM2, W261A/W581A and “complete abolishment” at DIM2, W261A/W581A (listed as H3K9me3 peptide).

As to “DIM2WT: Neurospora Crassa DIM2 (NCBI accession no. XP_959891.1) (residues 1-1242)”, the “DIM2-HP1 complex formation (in words)” value in the assay with HP1 is on record as “co-migration”. Besides, the “DNA methylation activity of DIM2 (in words)” value in assay [1] (1.0 µM DIM2, 30 °C, pH 8.0) was “no detectable activity”. The DNA methylation activity in assay [1] (Fig. 1b, 1.0 µM DIM2, 1.0 µM DNA duplex, 0.56 µM [methyl-3H]SAM, 1.0 µM H3 peptide and/or 2 µM HP1, pH 8.0, 30 °C, tritium scintillation, replicate 1) is listed as -0.021; in assay [1] (Fig. 1b, 1.0 µM DIM2, 1.0 µM DNA duplex, 0.56 µM [methyl-3H]SAM, 1.0 µM H3 peptide and/or 2 µM HP1, pH 8.0, 30 °C, tritium scintillation, replicate 2), -0.01; in assay [1] (Fig. 1b, 1.0 µM DIM2, 1.0 µM DNA duplex, 0.56 µM [methyl-3H]SAM, 1.0 µM H3 peptide and/or 2 µM HP1, pH 8.0, 30 °C, tritium scintillation, replicate 3) it was -0.04; in assay [1] (Fig. 2g, in the presence of HP1 (2 µM) and H3_1-24K9me3 peptide (1.0 µM), 1.0 µM DIM2, 30 °C, pH 8.0, replicate 1), 20.908; in assay [1] (Fig. 2g, in the presence of HP1 (2 µM) and H3_1-24K9me3 peptide (1.0 µM), 1.0 µM DIM2, 30 °C, pH 8.0, replicate 2) it was 20.644; in assay [1] (Fig. 2g, in the presence of HP1 (2 µM) and H3_1-24K9me3 peptide (1.0 µM), 1.0 µM DIM2, 30 °C, pH 8.0, replicate 3), 18.328. In addition, the DNA methylation activity in assay [1] (Fig. 5f, DNA binding-associated mutants, 1.0 µM DIM2, 1.0 µM DNA duplex, 30 °C, pH 8.0, replicate 1) is 14.337; in assay [1] (Fig. 5f, DNA binding-associated mutants, 1.0 µM DIM2, 1.0 µM DNA duplex, 30 °C, pH 8.0, replicate 2) it was 13.213; in assay [1] (Fig. 5f, DNA binding-associated mutants, 1.0 µM DIM2, 1.0 µM DNA duplex, 30 °C, pH 8.0, replicate 3) it was 13.147; in assay [1] (Fig. 3h, in the presence of HP1 (2 µM) and H3_1-24K9me3 peptide (1.0 µM), 1.0 µM DIM2, 30 °C, pH 8.0, replicate 1) it was 22.922; in assay [1] (Fig. 3h, in the presence of HP1 (2 µM) and H3_1-24K9me3 peptide (1.0 µM), 1.0 µM DIM2, 30 °C, pH 8.0, replicate 2) it was 23.125; in assay [1] (Fig. 3h, in the presence of HP1 (2 µM) and H3_1-24K9me3 peptide (1.0 µM), 1.0 µM DIM2, 30 °C, pH 8.0, replicate 3), 22.99. Also, the DNA methylation activity in assay [1] (Fig. 6d, H3_1-24K9me3 binding-associated mutants, 1.0 µM DIM2, 1.0 µM DNA duplex, 30 °C, pH 8.0, replicate 1) was determined as 19.42; in assay [1] (Fig. 6d, H3_1-24K9me3 binding-associated mutants, 1.0 µM DIM2, 1.0 µM DNA duplex, 30 °C, pH 8.0, replicate 2), 16.017; in assay [1] (Fig. 6d, H3_1-24K9me3 binding-associated mutants, 1.0 µM DIM2, 1.0 µM DNA duplex, 30 °C, pH 8.0, replicate 3), 17.874.
